For this experiment, the system named is apomorphine climbing. The experiment in a line: Climbing Mouse Assay (CMA), antagonism of apomorphine-induced climbing. Conditions: linear regression, read-out: Climbing Mice Assay ED50. It is filed as in vivo, CK-1 male mice. The text has this:
The compounds of the present invention are potentially useful as antipsychotic agents as determined in the Climbing Mouse Assay (CMA).
The Climbing Mouse Assay is described by P. Protais, et al., Psychopharmacol., 50, 1 (1976) and B. Costall, Eur. J. Pharmacol., 50, 39 (1978).
The subject CK-1 male mice (23-27 grams) are group-housed under standard laboratory conditions. The mice are individually placed in wire mesh stick cages (4"×4" by 10") and are allowed one hour for adaptation and exploration of the new environment. The apomorphine is injected subcutaneously at 1.5 mg/kg, a dose causing climbing in all subjects for 30 minutes. Compounds to be tested for antipsychotic activity are injected intraperitoneally (i.p.) 30 minutes prior to the apomorphine challenge at a screening dose of 10 mg/kg.
For evaluation of climbing, 3 readings are taken at 10, 20 and 30 minutes after apomorphine administration according to the following scale: […]
______________________________________
4 paws on bottom (no climbing)
2 paws on the wall (rearing)
4 paws on the wall (full climb)
Mice consistently climbing before the injection of apomorphine are discarded.
With full-developed apomorphine climbing, the animals are hanging onto the cage walls, rather motionless, over longer periods of time. By contrast, climbs due to mere motion stimulation usually last only a few seconds.
The climbing scores are individually totaled (maximum score: 6 per mouse over 3 readings) and the total score of the control group (vehicle intraperitoneally; apomorphine subcutaneously) is set to 100%. ED50 values with 95% confidence limits, calculated by linear regression analyses of some of the compounds of this invention are presented in Table 1.

Setting [1] is: ip, 30 minutes prior to apomorphine 1.5 mg/kg s.c.

Read-outs that look alike come from different tables or passages of the source.

Usually ED50 stands for the midpoint of the dose-response relation. `CC1(C)SCN(CCCCN2CCN(c3n[nH]c4ccccc34)CC2)C1=O` [3-(4-(1-[1H-Indazol-3-yl]-4-piperazinyl)-butyl)-5,5-dimethyl-4-thiazolidinone]: the 50% effective dose (ED50) under setting [1] was 1.3 mg/kg.

Consider `CC1SCN(CCCCN2CCN(c3n[nH]c4cc(F)ccc34)CC2)C1=O` (centres unmarked) [3-{4-[1-(6-Fluoro-1H-indazol-3-yl)-piperazinyl]butyl}-5-methyl-4-thiazolidinone], for which the ED50 under setting [1] amounted to 0.11 mg/kg.

`CN1CCN(C2=Nc3cc(Cl)ccc3Nc3ccccc32)CC1` [Clozapine, reference compound]: under setting [1], the ED50 amounted to 8.1 mg/kg.

With `O=C1N(CCCCN2CCN(c3n[nH]c4ccccc34)CC2)CSC12CCCC2` [3-(4-(1-[1H-Indazol-3-yl]-4-piperazinyl)butyl)-1-thia-3-azaspiro[4.4]nonan-4-one], the ED50 runs as follows: under setting [1], 1.3 mg/kg; (po, apomorphine 1.5 mg/kg s.c.) 2.7 mg/kg.

With `O=C1N(CCCCN2CCN(c3n[nH]c4cc(F)ccc34)CC2)CSC12CCCCC2` [3-{4-[1-(6-Fluoro-1H-indazol-3-yl)-4-piperazinyl]butyl}-1-thia-3-azaspiro[4.5]decan-4-one], the median effective dose (ED50) runs as follows: under setting [1], 0.04 mg/kg; (po, apomorphine 1.5 mg/kg s.c.) 0.67 mg/kg.

Consider `O=C1N(CCCCN2CCN(c3n[nH]c4ccccc34)CC2)CSC12CCCCC2` [3-(4-(1-[1H-indazol-3-yl]-4-piperazinyl)butyl)-1-thia-3-azaspiro[4.5]decan-4-one], for which the ED50 under setting [1] came to 0.65 mg/kg.

The values are drawn from US5041445A, “3-[1-thiazolidinylbutyl-4-piperazinyl]-1H-indazoles” (Hoechst-Roussel Pharmaceuticals Incorporated, priority 1990, dated 1991).
